Data as given in PMC6894882 (PLoS Neglected Tropical Diseases, 2019).
Counter-ions that a name gives are not always drawn. Like-named read-outs stand apart in the source and are kept apart here. Marks after values point to notes of the source that are not given here.

How the values were obtained:
[1] = tested on: Norovirus (human norovirus, GT1 strain); experiment: microbe, parasite or virus in culture; type: cell-based; parameters: SI90: unit not given beside the values
[2] = tested on: Venezuelian equine encephalitis virus; experiment: organism not typed; type: cell-based; parameters: SI50: unit not given beside the values
T. cruzi = details: mouse, in vivo; cited from earlier work
[3] = tested on: Ebola virus (Zaire strain); experiment: microbe, parasite or virus in culture; type: cell-based; parameters: SI50: unit not given beside the values
in vitro [4] = details: human, plasma, pH 7.4
CYP2D6 = CYP2D6 (Homo sapiens, UniProt P10635); experiment: biochemical
Zika virus [5] = experiment: microbe, parasite or virus in culture; type: cell-based; parameters: SI50: unit not given beside the values
in vitro [6] = details: dog
CYP1A2 = CYP1A2 (Homo sapiens, UniProt P05177); experiment: biochemical
CYP3A4 = CYP3A4 (Homo sapiens, UniProt P08684); experiment: biochemical
Dengue Virus 2 = experiment: microbe, parasite or virus in culture; type: cell-based; parameters: SI50: unit not given beside the values
Hepatitis B virus = experiment: microbe, parasite or virus in culture; type: cell-based; parameters: SI50 / SI90: unit not given beside the values
in vitro [7] = details: human, microsomes
EBOV in HeLa cells = type: cell-based, Ebola virus
cytokines and chemokines = tested on: cytokines and chemokines; parameters: species or system mice; details: mouse, in vivo
Poliovirus 3 = experiment: microbe, parasite or virus in culture; type: cell-based; parameters: SI50: unit not given beside the values
in vitro [8] = details: mouse
in vitro [9] = details: guinea pig, microsomes
in vitro [10] = details: mouse, plasma, pH 7.4
[11] = mouse, in vivo
[12] = in vivo, cited from earlier work
in vitro [13] = details: mouse, microsomes
Rift Valley fever virus = experiment: microbe, parasite or virus in culture; type: cell-based; parameters: SI50: unit not given beside the values
[14] = tested on: Respiratory synactial virus; experiment: organism not typed; type: cell-based; parameters: SI50: unit not given beside the values
in vitro [15] = details: African green monkey
Hepatitis C virus = experiment: microbe, parasite or virus in culture; type: cell-based; parameters: SI50 / SI90: unit not given beside the values
physchem = details: 20 °C, pH 7.4, aqueous buffer, kinetic from dmso stock
MERS coronavirus = experiment: microbe, parasite or virus in culture; type: cell-based; parameters: SI50: unit not given beside the values
in vitro [16] = details: African green monkey; remark: listed apart in the source
in vitro [17] = details: human, Caco-2, pH 7.4
Yellow Fever virus = experiment: microbe, parasite or virus in culture; type: cell-based; parameters: SI50: unit not given beside the values
Vaccinia Virus = experiment: microbe, parasite or virus in culture; type: cell-based; parameters: SI50 / SI90: unit not given beside the values
Chikungunya virus = experiment: microbe, parasite or virus in culture; type: cell-based; parameters: SI50: unit not given beside the values
West Nile virus = experiment: microbe, parasite or virus in culture; type: cell-based; parameters: SI50: unit not given beside the values
Herpes Simplex Virus 1 = experiment: microbe, parasite or virus in culture; type: cell-based; parameters: SI50 / SI90: unit not given beside the values
CYP2C19 = CYP2C19 (Homo sapiens, UniProt P33261); experiment: biochemical
Zika virus [18] = experiment: microbe, parasite or virus in culture; type: cell-based; parameters: SI50: unit not given beside the values; remark: listed apart in the source
CYP2C9 = CYP2C9 (Homo sapiens, UniProt P11712); experiment: biochemical
[19] = mouse, in vivo; cited from earlier work
[20] = pH 7.4
Murine norovirus = experiment: microbe, parasite or virus in culture; type: cell-based; parameters: SI50 / SI90: unit not given beside the values
Plasmodium falciparum = details: read-out: in vitro EC50; cited from earlier work
in vivo [21] = details: both, BALB/c, mouse, ip
Influenza A virus H1N1 = experiment: microbe, parasite or virus in culture; type: cell-based; parameters: SI50: unit not given beside the values
HeLa cells = details: cited from earlier work
Human cytomegalovirus = experiment: microbe, parasite or virus in culture; type: cell-based; parameters: SI50 / SI90: unit not given beside the values
Tacaribe virus = experiment: microbe, parasite or virus in culture; type: cell-based; parameters: SI50: unit not given beside the values
in vitro [22] = details: non-human primate, microsomes
in vivo [23] = details: BALB/c, mouse, ip
EBOV [24] = details: mouse, in vivo; cited from earlier work
EBOV [25] = details: in vivo; cited from earlier work
EBOV [26] = details: in vivo; cited from earlier work; remark: listed apart in the source
[27] = Hepatitis B virus, HepG2 2.2.15

Sequence of CYP2C19 (P33261 whole entry): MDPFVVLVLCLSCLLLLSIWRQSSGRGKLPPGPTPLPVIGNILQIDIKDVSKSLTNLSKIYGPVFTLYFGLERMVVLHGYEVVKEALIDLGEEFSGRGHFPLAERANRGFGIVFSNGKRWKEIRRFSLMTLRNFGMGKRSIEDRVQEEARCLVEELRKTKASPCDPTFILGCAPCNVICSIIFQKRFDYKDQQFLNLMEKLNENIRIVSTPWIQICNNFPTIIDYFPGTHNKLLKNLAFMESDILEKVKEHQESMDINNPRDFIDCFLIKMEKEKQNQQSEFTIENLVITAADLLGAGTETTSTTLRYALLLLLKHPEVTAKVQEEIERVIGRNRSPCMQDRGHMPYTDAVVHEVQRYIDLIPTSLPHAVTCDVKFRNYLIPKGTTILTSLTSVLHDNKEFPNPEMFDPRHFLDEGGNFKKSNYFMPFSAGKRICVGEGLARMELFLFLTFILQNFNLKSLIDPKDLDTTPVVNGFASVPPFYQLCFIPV
Sequence of CYP1A2 (P05177 whole entry): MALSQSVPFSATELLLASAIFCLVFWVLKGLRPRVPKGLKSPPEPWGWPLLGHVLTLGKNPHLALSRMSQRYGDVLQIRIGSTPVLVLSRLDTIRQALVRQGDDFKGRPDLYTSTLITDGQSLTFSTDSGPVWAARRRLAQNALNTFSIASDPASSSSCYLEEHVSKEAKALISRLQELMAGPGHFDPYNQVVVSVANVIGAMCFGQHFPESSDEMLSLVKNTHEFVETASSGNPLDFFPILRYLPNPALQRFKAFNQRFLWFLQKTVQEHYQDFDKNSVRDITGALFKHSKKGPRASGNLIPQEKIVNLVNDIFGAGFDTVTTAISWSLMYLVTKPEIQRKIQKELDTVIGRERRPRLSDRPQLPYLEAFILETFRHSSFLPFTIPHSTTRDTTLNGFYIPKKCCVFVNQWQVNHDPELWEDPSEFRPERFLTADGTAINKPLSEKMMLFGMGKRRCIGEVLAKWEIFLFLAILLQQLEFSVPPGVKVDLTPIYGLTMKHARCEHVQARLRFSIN
Sequence of CYP2D6 (P10635 whole entry): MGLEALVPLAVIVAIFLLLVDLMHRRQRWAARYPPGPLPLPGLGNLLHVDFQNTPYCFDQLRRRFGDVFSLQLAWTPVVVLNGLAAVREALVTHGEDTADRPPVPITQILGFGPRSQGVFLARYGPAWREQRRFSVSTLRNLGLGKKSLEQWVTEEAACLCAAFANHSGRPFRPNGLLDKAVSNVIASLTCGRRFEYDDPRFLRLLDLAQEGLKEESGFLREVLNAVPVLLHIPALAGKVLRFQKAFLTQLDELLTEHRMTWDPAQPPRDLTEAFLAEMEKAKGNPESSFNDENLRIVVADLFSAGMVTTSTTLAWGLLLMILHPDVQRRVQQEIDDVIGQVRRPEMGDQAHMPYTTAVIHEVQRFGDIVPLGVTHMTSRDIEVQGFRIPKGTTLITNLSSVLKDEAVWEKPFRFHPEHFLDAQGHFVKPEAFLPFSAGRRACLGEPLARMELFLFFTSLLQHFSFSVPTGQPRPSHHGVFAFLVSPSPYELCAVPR
Sequence of CYP3A4 (P08684 whole entry): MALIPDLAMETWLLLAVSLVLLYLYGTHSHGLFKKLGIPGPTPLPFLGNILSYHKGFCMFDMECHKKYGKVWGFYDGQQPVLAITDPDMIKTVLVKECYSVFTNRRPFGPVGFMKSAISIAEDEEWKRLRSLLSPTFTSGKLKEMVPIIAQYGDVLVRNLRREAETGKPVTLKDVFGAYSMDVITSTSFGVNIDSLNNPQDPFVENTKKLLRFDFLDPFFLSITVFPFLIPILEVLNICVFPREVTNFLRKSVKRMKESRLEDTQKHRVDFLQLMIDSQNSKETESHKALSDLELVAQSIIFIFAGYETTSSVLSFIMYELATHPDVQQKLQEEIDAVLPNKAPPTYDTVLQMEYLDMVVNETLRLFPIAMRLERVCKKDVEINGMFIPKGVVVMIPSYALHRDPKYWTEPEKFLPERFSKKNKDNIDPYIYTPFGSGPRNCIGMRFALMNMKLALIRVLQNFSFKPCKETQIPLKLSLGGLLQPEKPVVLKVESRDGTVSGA
Sequence of CYP2C9 (P11712 whole entry): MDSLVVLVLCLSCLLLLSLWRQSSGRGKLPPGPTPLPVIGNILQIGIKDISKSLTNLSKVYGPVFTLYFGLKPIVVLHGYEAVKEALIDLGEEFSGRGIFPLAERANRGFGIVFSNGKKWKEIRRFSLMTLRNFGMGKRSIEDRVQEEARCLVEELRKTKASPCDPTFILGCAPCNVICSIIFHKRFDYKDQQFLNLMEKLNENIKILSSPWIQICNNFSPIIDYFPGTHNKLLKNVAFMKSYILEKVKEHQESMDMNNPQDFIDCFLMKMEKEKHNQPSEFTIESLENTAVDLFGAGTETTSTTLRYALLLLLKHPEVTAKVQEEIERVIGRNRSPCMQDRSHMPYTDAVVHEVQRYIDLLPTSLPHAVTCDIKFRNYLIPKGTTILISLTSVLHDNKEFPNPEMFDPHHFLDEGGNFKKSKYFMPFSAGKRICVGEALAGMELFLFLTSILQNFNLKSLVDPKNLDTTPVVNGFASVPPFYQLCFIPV

C[C@@]1(O)[C@H](O)[C@@H](CO)O[C@H]1n1ccc(N)nc1=O [2’C-methyl cytidine]
CC50 (HG23): > 300 µM | EC50 ([1]; read-out: EC50): 6.5 µM

COc1ccc2nc3cc(Cl)ccc3c(Nc3cc(CN4CCCC4)c(O)c(CN4CCCC4)c3)c2n1 [Pyronaridine, 4-[(7-Chloro-2-methoxybenzo[b][1, 5]naphthyridin-10-yl)amino]-2,6-bis(1-pyrrolidinylmethyl)phenol phosphate (1:4)]
SI50 [2]: 1.8 | EC50 ([2]; Vero 76): 1.8 µM | efficacy rate (T. cruzi): 85% | SI50 [3]: 0 | anti-EBOV activity (Zaire strain) [3]: lack of antiviral activity | EC50 ([3]; Zaire ebolavirus, Vero 76): > 1.3 µM | fraction unbound (in vitro [4]): 0.049 | IC50 (CYP2D6): 2.23 µM | SI50 (Zika virus [5]): 1 | EC50 (Zika virus [5]; Zika virus, Vero 76): 3.2 µM | SI90 [1]: 10 | EC50 ([1]; Norovirus, GT1, HG23): 3.5 µM | EC90 ([1]; Norovirus, GT1, HG23): 9.7 µM | CC50 (in vitro [6]): 3.2 µM | IC50 (CYP1A2): > 50 µM | IC50 (CYP3A4): 42.9 µM | SI50 (Dengue Virus 2): 1 | EC50 (Dengue Virus 2; Dengue virus, Vero 76): 3.2 µM | SI50 (Hepatitis B virus): <1 | SI90 (Hepatitis B virus): <1 | EC50 (Hepatitis B virus; [27]): 4.52 µM | EC90 (Hepatitis B virus; [27]): > 100 µM | microsomal CLint (in vitro [7]): 4.1 µL/min/mg | SI (EBOV in HeLa cells): ~ 3 | IFN-α/β concentrations (cytokines and chemokines): below the level of detection | cytokine/chemokine levels over vehicle or naïve controls (cytokines and chemokines): did not elicit a statistically significant increase | SI50 (Poliovirus 3): 1 | EC50 (Poliovirus 3; Enterovirus C, Vero 76): 3.2 µM | CC50 (in vitro [8]): > 40 µM | half-life (in vitro [9]): 0.74 h | microsomal CLint (in vitro [9]): 15.6 µL/min/mg | fraction unbound (in vitro [10]): 0.035 | clinical observations in PK study [11]: ruffled fur and eye squinting | time of peak plasma levels ([11]; ip): 0.25 and 1 | t1/2 ([12]; human, po, 400 mg): 241 h | volume of distribution ([12]; human, po, 400 mg): 41.2 L/kg | half-life elimination in whole blood ([12]; human): approximately 17 d | t1/2 in humans ([12]; human): 195 to 251 h | total radioactive half-life [12]: 804 h | half-life (in vitro [13]): 2.88 h | microsomal CLint (in vitro [13]): 4 µL/min/mg | SI50 (Rift Valley fever virus): 1 | EC50 (Rift Valley fever virus; Rift Valley fever virus, Vero 76): 3.2 µM | SI50 [14]: 0 | EC50 ([14]; MA104): > 7.5 µM | CC50 (in vitro [15]): 7.5 µM | SI50 (Hepatitis C virus): 1 | SI90 (Hepatitis C virus): <1 | EC50 (Hepatitis C virus; Hepatitis C virus, Huh-7): 0.78 µM | EC90 (Hepatitis C virus; Hepatitis C virus, Huh-7): 1.71 µM | solubility (physchem): 168 µM | SI50 (MERS coronavirus): 1 | EC50 (MERS coronavirus; Middle East respiratory syndrome-related coronavirus, Vero 76): 3.2 µM | CC50 (in vitro [16]; CC50): 3.2 µM | CC50 (in vitro [16]; approximate CC50): ~3 µM | Papp A→B (in vitro [17]): 6.46 ×10⁻⁶ cm/s | Papp B→A (in vitro [17]): 4.8 ×10⁻⁶ cm/s | efflux ratio (in vitro [17]): 0.74 | SI50 (Yellow Fever virus): 1 | EC50 (Yellow Fever virus; Yellow fever virus, Vero 76): 3.2 µM | SI50 (Vaccinia Virus): <3 | SI90 (Vaccinia Virus): <3 | EC50 (Vaccinia Virus; Orthopoxvirus vaccinia, HFF): > 1.2 µM | EC90 (Vaccinia Virus; Orthopoxvirus vaccinia, HFF): > 1.2 µM | SI50 (Chikungunya virus): 1 | EC50 (Chikungunya virus; Chikungunya virus, Vero 76): 3.2 µM | SI50 (West Nile virus): 0 | EC50 (West Nile virus; West Nile virus, Vero 76): > 24 µM | SI50 (Herpes Simplex Virus 1): <1 | SI90 (Herpes Simplex Virus 1): <1 | EC50 (Herpes Simplex Virus 1; Human alphaherpesvirus 1, HFF): > 6 µM | EC90 (Herpes Simplex Virus 1; Human alphaherpesvirus 1, HFF): > 6 µM | IC50 (CYP2C19): > 50 µM | SI50 (Zika virus [18]): 1 | EC50 (Zika virus [18]; Zika virus, Huh-7): 3.2 µM | IC50 (CYP2C9): > 50 µM | LD50 [19]: 1342 mg/kg | abundance relative to parent drug (Mouse) [20]: 100%* | SI50 (Murine norovirus): 1 | SI90 (Murine norovirus): 1 | EC50 (Murine norovirus; Norwalk virus, RAW267.4): > 40 µM | EC90 (Murine norovirus; Norwalk virus, RAW267.4): > 40 µM | EC50 (Plasmodium falciparum): 0.0135 µM | MTD (in vivo [21]): 100 mg/kg | SI50 (Influenza A virus H1N1): 1 | EC50 (Influenza A virus H1N1; Influenza A virus, H1N1, MDCK): 3.2 µM | CC50 (HeLa cells): 3.1 µM | SI50 (Human cytomegalovirus): <3 | SI90 (Human cytomegalovirus): <3 | EC50 (Human cytomegalovirus; Human betaherpesvirus 5, HFF): > 1.2 µM | EC90 (Human cytomegalovirus; Human betaherpesvirus 5, HFF): > 1.2 µM | SI50 (Tacaribe virus): 0 | EC50 (Tacaribe virus; Mammarenavirus tacaribeense, Vero): > 3.2 µM | half-life (in vitro [22]): 2.33 h | microsomal CLint (in vitro [22]): 4.9 µL/min/mg | AUC(0-t) (in vivo [23]; female, 5 mg/kg): 257 ng·h/mL | Cmax (in vivo [23]; female, 5 mg/kg): 54 ng/mL | Tmax (in vivo [23]; female, 5 mg/kg): 4.98 min | AUC(0-t) (in vivo [23]; female, 25 mg/kg): 956 ng·h/mL | Cmax (in vivo [23]; female, 25 mg/kg): 160 ng/mL | AUC(0-t) (in vivo [23]; male, 5 mg/kg): 192 ng·h/mL | Cmax (in vivo [23]; male, 5 mg/kg): 44.4 ng/mL | AUC(0-t) (in vivo [23]; male, 25 mg/kg): 713 ng·h/mL | Cmax (in vivo [23]; male, 25 mg/kg): 115 ng/mL | AUC(0-inf) (in vivo [23]; male, 75 mg/kg): 33900 ng·h/mL | AUC(0-t) (in vivo [23]; male, 75 mg/kg): 33000 ng·h/mL | Cmax (in vivo [23]; male, 75 mg/kg): 982 ng/mL | half-life (in vivo [23]; male, 75 mg/kg): 146 h

CCN(CC)CCOc1ccc2c(c1)C(=O)c1cc(OCCN(CC)CC)ccc1-2 [Tilorone, tilorone dihydrochloride]
IFN-α/β levels (cytokines and chemokines): below the LLOD | cytokine/chemokine protein concentrations over vehicle-treated and naïve mice (cytokines and chemokines): statistically significant increase in observed protein concentrations

CCN(CC)CCCC(C)Nc1ccnc2cc(Cl)ccc12 (stereo not shown) [chloroquine]
survival rate (EBOV [24]): 90% | activity in guinea pig studies (EBOV [25]): inactive

B1: mAb114 (antibody, chains of the INN, looked up, V domains shown)
VH: EVQLVESGGGLIQPGGSLRLSCAASGFALRMYDMHWVRQTIDKRLEWVSAVGPSGDTTYADSVKGRFAVSRENAKNSLSLQMNSLTAGDTAIYYCVRSDRGVAGLFDSWGQGILVTVSS
VL: DIQMTQSPSSLSASVGDRITITCRASQAFDNYVAWYQQRPGKVPKLLISAASALHAGVPSRFSGSGSGTHFTLTISSLQPEDVATYYCQNYNSAPLTFGGGTKVEIK
survival rates in clinical trial (EBOV [26]): higher survival rates than ZMapp and remdesivir
